# According to US5684028A, “Sulphorous derivatives of imidazole, their preparation process, the new intermediates obtained, their use as medicaments and the pharmaceutical compositions” (Roussel UCLAF, priority 1990, dated 1997):
# Legend:
# [1] = test system: angiotensin II (response of the isolated portal vein); test: Antagonistic activity of angiotensin II on the isolated portal vein; conditions: portal vein of male Wistar rats; angiotensin II 3.10^-8 M; compound 15 minutes before; 37° C.; verapamil 1.10^-6 M; read-out: IC50 (dose which produces a 50% inhibition of the response to angiotensin)
# Description: The portal vein of male Wistar rats (about 350 g) (IFFA Credo France) is removed after cervical dislocation and placed rapidly in a physiological solution (see below) at ambient temperature. A ring of about 1 mm is mounted in a bath with an isolation mechanism, containing 20 ml of the following physiological solution (composition in mM: NaCl 118.3 - KCl 4.7 - MgSO4 1.2 - KH2 PO4 1.2 - NaHCO3 25 - glucose 11.1 - CaCl2 2.5), the medium is maintained at 37° C. and oxygenated with an oxygen (95%), carbon dioxide (5%) mixture. The initial pressure imposed is 1 g, the rings are left at rest for 60 to 90 minutes. In order to avoid spontaneous contractions, verapamil is added to the incubation bath (1.10^-6 M).
# At the end of the rest period angiotensin II (Ciba hypertensin) 3.10^-8 M is added to the incubation bath and left in contact with the preparation for one minute. This operation is repeated every 30 minutes, the tissue being washed 3 or 4 times between two stimulations by angiotensin. The compound to be studied is introduced into the bath 15 minutes before a new stimulation by angiotensin. Increasing concentrations of the product to be studied are used and the IC50 (dose which produces a 50% inhibition of the response to angiotensin) of the product to be studied is calculated, this is expressed in nanomoles.
# [2] = test system: angiotensin II (pressure effects); test: Test for antagonistic activity of angiotensin II in a demedullated rat; type: in vivo; conditions: iv, demedullated male Sprague-Dawley rats, jugular vein injection 5 minutes before angiotensin II (0.75 micrograms/kg), diastolic arterial pressure, read-out: IC50 (dose which inhibits by 50% the pressure effects of angiotensin II)
# Description: 3 - Test for antagonistic activity of angiotensin II in a demedullated rat
# Male Sprague-Dawley rats (250 to 350 g) are anaesthetized by an intra-peritoneal injection of sodium pentobarbital (60 mg/kg). The diastolic arterial pressure is recorded by means of a heparinized catheter (PE50) introduced into the left carotid of the animal, and connected to a pressure calculator (Gould, Pressure Processor) by means of a Gould pressure sensor,
# A catheter is introduced into the right jugular vein of the animal in order to allow the injection of the molecules to be studied.
# The animal is placed under assisted respiration. A bilateral section of the pneumogastric nerves is carried out. The rat is then demedullated.
# After a suitable period of stabilization, the study of the antagonism of the molecules vis- -vis angiotensin II (CIBA Hypertensin) is approached in the following manner:
# 1 - Three consecutive injections of angiotensin II (0.75 micrograms/kg) spaced 15 minutes apart permits a reproducible and stable pressure response to be obtained.
# 2 - While keeping a time interval of 15 minutes for the administration of angiotensin II, the molecules (0.01 to 10 mg/kg) are injected 5 minutes before the angiotensin II.
# The pressure effects of angiotensin II in the presence of the antagonist are expressed as a percentage of the pressure effects of angiotensin II administered on its own. The dose which inhibits the studied effect by 50% is thus determined.
# Each animal is considered to be its own control.
# [3] = target: T1, angiotensin II receptor (Rattus norvegicus, UniProt P25095); test: Test on the angiotensin II receptor (displacement of I^125 angiotensin II, rat liver membranes); type: binding; conditions: 25° C., 150 minutes, read-out: IC50 (50% inhibiting concentration, displacement of specific radioactivity fixed on the receptor)
# T1 construct: A fresh membrane preparation obtained from the liver of a rat is used; from tissue; host or cells: rat liver, fresh membrane preparation
# T1 sequence (P25095 1-359): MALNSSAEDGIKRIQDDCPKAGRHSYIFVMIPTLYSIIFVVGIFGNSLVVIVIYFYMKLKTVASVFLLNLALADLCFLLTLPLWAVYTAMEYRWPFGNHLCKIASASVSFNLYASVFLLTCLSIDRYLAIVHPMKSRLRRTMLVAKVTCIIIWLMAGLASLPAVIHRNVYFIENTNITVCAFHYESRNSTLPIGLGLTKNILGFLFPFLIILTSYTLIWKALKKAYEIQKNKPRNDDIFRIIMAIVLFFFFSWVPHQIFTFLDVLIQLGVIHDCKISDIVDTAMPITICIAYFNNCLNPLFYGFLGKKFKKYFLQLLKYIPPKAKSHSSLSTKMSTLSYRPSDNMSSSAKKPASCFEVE
# Description: 1 - Test on the angiotensin II receptor
# A fresh membrane preparation obtained from the liver of a rat is used. The tissue is ground up in a polytron in a Tris 50 mM buffer pH 7.4, the grinding is followed by 3 centrifugations at 30,000 g for 15 minutes, the deposits being taken up in between in the Tris buffer pH 7.4.
# The last deposits are put in suspension in an incubation buffer (Tris 20 mM, NaCl 135 mM, […], KCl 10 mM, glucose 5 mM, MgCl2 10 mM PMSF 0.3 mM, bacitracin 0.1 mM, BSA 0.2%).
# Aliquoted fractions of 2 ml are divided into hemolysis tubes and I^125 angiotensin II (25,000 DPM per tube) and the product to be studied are added. (The product is first tested at 3×10^-5 M three times). When the tested product displaces by more than 50% the radioactivity linked specifically to the receptor, it is tested again according to a range of 7 doses in order to determine the dose which inhibits by 50% the radioactivity linked specifically to the receptor. In this way the 50% inhibiting concentration is determined.
# The non-specific bond is determined by addition of the product of Example 94 of the European Patent 0,253,310, at 10^-5 M (three times). The medium is incubated at 25° C. for 150 minutes, put in a water bath at 0° C. for 5 minutes, filtered under vacuum, rinsed with Tris buffer pH 7.4 and the radioactivity is counted in the presence of scintillating Triton.
# The result is expressed directly as the 50% inhibiting concentration (IC50), that is as the concentration of studied product, expressed in nM, necessary to displace 50% of the specific radioactivity fixed on the receptor studied.
IC50 [1] [nM],IC50 [3] [nM],Structure (SMILES),ED50 [2] [mg/kg]
13,,"CCCCc1nc(SCC)c(C(=O)O)n1Cc1ccc(-c2ccccc2C(=O)O)cc1 [Example 6, 2-butyl-1-[[2'-carboxy-(1,1'-biphenyl)-4-yl]-methyl]-4-(ethylthio)-1H-imidazole-5-carboxylic acid]",
10,,"CCCCc1nc(SCC)c(CO)n1Cc1ccc(-c2ccccc2C(=O)O)cc1 [Example 14, 4'-[[2-butyl-4-(ethylthio)-5-(hydroxymethyl)-1H-imidazol-1-yl]-methyl]-(1,1'-biphenyl)-2-carboxylic acid]",0.78
,,"CCCCc1nc([S+]([O-])CC)c(C(=O)O)n1Cc1ccc(-c2ccccc2C(=O)O)cc1 (stereo not drawn) [Example 16, 2-butyl-1-[[2'-carboxy-(1,1'-biphenyl)-4-yl]-methyl]-4-(ethylsulphinyl)-1H-imidazole-5-carboxylic acid]",0.29
,,"CCCCc1nc(S(=O)(=O)CC)c(C(=O)O)n1Cc1ccc(-c2ccccc2C(=O)O)cc1 [Example 18, 2-butyl-1-[[2'-carboxy-(1,1'-biphenyl)-4-yl]-methyl]-4-(ethylsulphonyl)-1H-imidazole-5-carboxylic acid]",0.79
5,17,"CCCCc1nc(Sc2ccccc2)c(C(=O)O)n1Cc1ccc(-c2ccccc2C(=O)O)cc1 [Example 20, 2-butyl-1-[[2'-carboxy-(1,1'-biphenyl)-4-yl]-methyl]-4-(phenylthio)-1H-imidazole-5-carboxylic acid]",
8,49,"CCCCc1nc(SC)c(C(=O)O)n1Cc1ccc(-c2ccccc2C(=O)O)cc1 [Example 22, 2-butyl-1-[[2'-carboxy-(1,1'-biphenyl)-4-yl]-methyl]-4-(methylthio)-1H-imidazole-5-carboxylic acid]",0.47
,47,"CCCCc1nc(S(=O)(=O)c2ccccc2)c(C(=O)O)n1Cc1ccc(-c2ccccc2C(=O)O)cc1 [Example 26, 2-butyl-1-[[2'-carboxy-(1,1'-biphenyl)-4-yl]-methyl]-4-(phenylsulphonyl)-1H-imidazole-5-carboxylic acid]",
,10.2,"CCCCc1nc([S+]([O-])c2ccccc2)c(C(=O)O)n1Cc1ccc(-c2ccccc2C(=O)O)cc1 (stereo not drawn) [Example 28, 2-butyl-1-[[2'-carboxy-(1,1'-biphenyl)-4-yl]-methyl]-4-(phenylsulphinyl)-1H-imidazole-5-carboxylic acid]",
0.9,5.7,"CCCCc1nc(SCc2ccccc2)c(C(=O)O)n1Cc1ccc(-c2ccccc2C(=O)O)cc1 [Example 48, 2-butyl-1-[[2'-carboxy-(1,1'-biphenyl)-4-yl]-methyl]-4-[(phenylmethyl)-thio]-1H-imidazole-5-carboxylic acid]",
0.14,1.9,"CCCCc1nc(SC)c(C(=O)O)n1Cc1ccc(-c2ccccc2-c2nnn[nH]2)cc1 [Example 51, 2-butyl-4-(methylthio)-1-[[2'-(1H-tetrazol-5-yl)-(1,1'-biphenyl)-4-yl]-methyl]-1H-imidazole-5-carboxylic acid]",0.054
0.56,3.6,CCCCc1nc(SCc2ccc(OC)cc2)c(C(=O)O)n1Cc1ccc(-c2ccccc2C(=O)O)cc1 [Example 70],0.33
2,5.8,CCCCc1nc(SCc2ccccc2)c(CO)n1Cc1ccc(-c2ccccc2C(=O)O)cc1 [Example 74],0.34
0.21,1.3,CCCCc1nc(S(C)(=O)=O)c(C(=O)O)n1Cc1ccc(-c2ccccc2-c2nn[nH]n2)cc1 [Example 83],0.022
,0.8,CCCCc1nc(S(C)(=O)=O)c(C(=O)O)n1Cc1ccc(-c2ccccc2-c2nn[nH]n2)cc1 [Example 84],
,0.5,CCCCc1nc(Sc2ccccc2)c(C(=O)O)n1Cc1ccc(-c2ccccc2-c2nn[nH]n2)cc1 [Example 92],0.08
,,CCCCc1nc(SC)c(C(=O)OCOC(=O)C(C)(C)C)n1Cc1ccc(-c2ccccc2-c2nn[nH]n2)cc1 [Example 106],0.04
